Laboratory results from patent US11802107B2, “Compounds and methods of use” (Signum Biosciences, Inc., priority 2017, dated 2023).
Values after ≈ are worked out from the molar mass of the structure shown.

Assays:
IL-8 [1] = test: Peptidoglycan (PGN)-induced IL-8 on NHEKs; type: cell-based, human; conditions: for IC50: Homo sapiens, NHEK, PGN 10 μg/mL, 24 hours, ELISA, read-out: PGN-NHEK 1L-8 Protein IC50; for PGN-induced IL-8 production: cultured human keratinocytes exposed to peptidoglycan (PGN)
Procedure: Normal human epidermal keratinocytes (NHEKs) from neonatal donors were obtained from Thermo-Fisher (Cat No. C-001-5C). Cells were cultured in 96-well plates for 24 hours with EpiLife media (Cat No. MEPI500CA) supplemented with keratinocytes growth supplement (Cat No. S0015). On Day 2, media was removed and replaced with supplement-depleted medium for 24 hours. On Day 3, media was removed and cells were pre-treated with test materials (≤1 μM) for 2 hours and later co-treated with test materials and PGN (Sigma Aldrich, Cat No. 77140) at 10 μg/mL and incubated for 24 hours at 37° C. and 5% CO2. PGN is a TLR-2 agonist. After incubation, cell media supernatants were harvested and used to measure pro-inflammatory cytokine levels (IL-8) using ELISA kit (BD Biosciences® #555244). Results were represented as percent of inhibition relative to untreated and PGN-only treated cells. IC50 values were determined by non-linear regression analysis using the four-parameter logistic equation.

IL-17 = test: Concanavalin-A-induced IL-17 on PBMCs; type: cell-based; conditions: Homo sapiens, PBMC, ConA, 24 hours, ELISA
DEFB4B (hBD2) = test: NHEK antimicrobial peptide gene expression, hBD2; type: cell-based, human; conditions: 10 μM, 24 hours, qPCR, normalized to GAPDH
Procedure: (§1) Normal human epidermal keratinocytes (NHEKs) from neonatal donors were obtained from Thermo-Fisher (Cat No. C-001-5C). Cells were cultured in 6-well plates for 24 hours before treatments with EpiLife media (Cat No. MEPI500CA) supplemented with keratinocytes growth supplement (Cat No. 50015). On Day 2, media was removed and incubated with test materials (10 μM) for 24 hours at 37° C. and 5% CO2. On Day 3, total RNA was extracted from cells using the RNAqueous® kit (Ambion®; Cat No. 1912) and cDNA was obtained using the High Capacity RNA-to-cDNA kit (Applied Biosystems®; Cat No. 4387406). Quantitative PCR (qPCR) was performed using the TaqMan® Fast Advanced Master Mix (Applied Biosystems®; Cat No. 4444556) and specific TaqMan®-probes human gene primers DEFB4B (hBD2), DEFB103 (hBD3), HCAP18 and GAPDH to calculate the relative gene fold expression change per treatment. Gene expression analysis was performed using the comparative Ct method (also known as the 2-[delta][delta]Ct) approach by comparing the Ct values of the treated samples with the untreated samples and normalized to GAPDH gene expression as endogenous housekeeping gene. Results were represented as fold-expression/untreated cells.

IL-8 [2] = test: P. acnes-induced IL-8 protein on human PBMCs (ELISA); type: cell-based; conditions: PBMCs + live P. acnes 1:1, test material 30 PM, 24 hours
Procedure: (§2) Cryopreserved human Peripheral Blood Mononuclear cells (PBMCs) from healthy adult donors were obtained from Zen Bio, Inc (Cat No. SER-PBMC-F). Cells were cultured in 12-well plates with lymphocyte media (Cat No. LYMPH-1) and incubated with test materials ([…]) and live P. acnes (ATCC® 6919TM) at 1:1 PBMC: P. acnes bacteria ratio for 24 hours at 37° C. and 5% CO2. After incubation, cell media supernatants were harvested and used to measure pro-inflammatory cytokine levels (IL-8, TNF-α, IL-1b, IL-17) using ELISA kits (BD Biosciences® #557966, #555212, #555244; R&D Systems® #DY317). Total RNA was extracted from cells using the RNAqueous® kit (Ambion®; Cat No. 1912) and cDNA was obtained using the High Capacity RNA-to-cDNA kit (Applied Biosystems®; Cat No. 4387406). Quantitative PCR (qPCR) was performed using the TaqMan® Fast Advanced Master Mix (Applied Biosystems®; Cat No. 4444556) and specific TaqMan®-probes human gene primers CXCL8 (IL-8), IL1B (IL-1b), TNF (TNF-α), IL17A (IL-17A) and GAPDH to calculate the relative gene fold expression change per treatment. Gene expression analysis was performed using the comparative Ct method (also known as the 2-[delta][delta]Ct) approach by comparing the Ct values of P. acnes-only treated cells with the untreated samples and normalized to GAPDH gene expression as endogenous housekeeping gene.

P. acnes (ATCC 6919) = test: Minimal bactericidal concentration (MBC) against P. acnes; type: cell-based, Propionibacterium acnes; conditions: Cutibacterium acnes, ATCC6919; P. acnes 10^7 CFU/mL, in PBS, anaerobic conditions
IL1B (IL-1b) = test: P. acnes-induced IL-1b gene on human PBMCs (qPCR); type: cell-based; conditions: PBMC, PBMCs + live P. acnes 1:1, test material 30 PM, 24 hours
Procedure: as §2

IL-13 = test: Concanavalin-A-induced IL-13 on PBMCs; type: cell-based; conditions: Homo sapiens, PBMC, ConA, 24 hours, ELISA
TNF (TNF-α) = test: P. acnes-induced TNF-α gene on human PBMCs (qPCR); type: cell-based; conditions: PBMC, PBMCs + live P. acnes 1:1, test material 30 PM, 24 hours, read-out: TNFa-Gene % inhibition
Procedure: as §2

HCAP18 = test: NHEK antimicrobial peptide gene expression, hCAP18; type: cell-based, human; conditions: 10 μM, 24 hours, qPCR, normalized to GAPDH
Procedure: as §1

IL17A (IL-17A) = test: P. acnes-induced IL-17 gene on human PBMCs (qPCR); type: cell-based; conditions: PBMC, PBMCs + live P. acnes 1:1, test material 30 PM, 24 hours
Procedure: as §2

IL-2 = test: PHA-induced IL-2 on PBMCs; type: cell-based; conditions: Homo sapiens, PBMC, PHA-L 20 μg/mL, 24 hours, ELISA
Procedure: Cryopreserved human Peripheral Blood Mononuclear cells (PBMCs) from healthy adult donors were obtained from Zen Bio, Inc (Cat No. SER-PBMC-F). Cells were cultured in 96-well plates with lymphocyte media (Cat No. LYMPH-1) and were pre-treated with test materials (≤100 μM) for 2 hours and later co-treated with test materials and PHA-L (Sigma Aldrich, Cat No. 11249738001) at 20 μg/mL and incubated for 24 hours at 37° C. and 5% CO2. After incubation, cell media supernatants were harvested and used to measure cytokine levels (IL-2, IFNγ) using ELISA kits (R&D Systems® #DY202, #DY285). Results were represented as percent of inhibition relative to untreated and PHA-only treated cells. IC50 values were determined by non-linear regression analysis using the four-parameter logistic equation.

SMILES: C/C(=C\CSC[C@H](NC(=O)N(C)CC(=O)O)C(=O)O)CCCC(C)CCCC(C)CCCC(C)C (stereo partly drawn) [Compound C, (2R)-2-{[(carboxymethyl)(methyl)carbamoyl]amino}-3-{[(2E)-3,7,11,15-tetramethylhexadec-2-en-1-yl]sulfanyl}propanoic acid]
- IC50 (IL-8 [1]): 250 nM
- IC50 (IL-17): 500 nM
- hBD2 gene expression (DEFB4B (hBD2)): 0.7 Fold-expression/untreated cells
- IL-8 Protein % inhibition (IL-8 [2]): 8%
- MBC (P. acnes (ATCC 6919)): 22 µg/mL (≈ 42.7 µM)
- inhibition at 30 pM (IL1B (IL-1b)): 0%
- IC50 (IL-13): 8200 nM
- inhibition at 30 pM (TNF (TNF-α)): 0%
- hCAP18 gene expression (HCAP18): 0.5 Fold-expression/untreated cells
- inhibition at 30 pM (IL17A (IL-17A)): 0%
- IC50 (IL-2): 900 nM

SMILES: C/C(=C\CSC[C@H](NC(=O)N1CCC[C@H]1C(=O)O)C(=O)O)CCCC(C)CCCC(C)CCCC(C)C (some centres unmarked) [Compound E]
- IC50 (IL-8 [1]): 250 nM
- PGN-induced IL-8 production (IL-8 [1]): inhibit IL-8 production
- IC50 (IL-17): 11400 nM
- hBD2 gene expression (DEFB4B (hBD2)): 1.1 Fold-expression/untreated cells
- IL-8 Protein % inhibition (IL-8 [2]): 67%
- MBC (P. acnes (ATCC 6919)): 7 µg/mL (≈ 12.9 µM)
- inhibition at 30 pM (IL1B (IL-1b)): 20%
- IC50 (IL-13): 1500 nM
- inhibition at 30 pM (TNF (TNF-α)): 0%
- hCAP18 gene expression (HCAP18): 0.7 Fold-expression/untreated cells
- inhibition at 30 pM (IL17A (IL-17A)): 0%
- IC50 (IL-2): 4100 nM

SMILES: C/C(=C\CSCC(NC(=O)N(CC(=O)O)CC(=O)O)C(=O)O)CCCC(C)CCCC(C)CCCC(C)C (centres unmarked) [Compound G]
- IC50 (IL-8 [1]): 50 nM
- PGN-induced IL-8 production (IL-8 [1]): inhibit IL-8 production
- IC50 (IL-17): 94200 nM
- hBD2 gene expression (DEFB4B (hBD2)): 2.5 Fold-expression/untreated cells
- IL-8 Protein % inhibition (IL-8 [2]): 74%
- MBC (P. acnes (ATCC 6919)): 1 µg/mL (≈ 1.79 µM)
- inhibition at 30 pM (IL1B (IL-1b)): 10%
- IC50 (IL-13): 20 nM
- inhibition at 30 pM (TNF (TNF-α)): 0%
- hCAP18 gene expression (HCAP18): 0.6 Fold-expression/untreated cells
- inhibition at 30 pM (IL17A (IL-17A)): 0%
- IC50 (IL-2): 3300 nM

SMILES: N#Cc1ccc(Oc2ccc3c(c2)COB3O)cc1 [AN2728, reference compound]
- IC50 (IL-17): 3100 nM
- IC50 (IL-13): 3800 nM
- IC50 (IL-2): 40 nM

SMILES: C/C(=C\CSC[C@H](NC(=O)COCC(=O)O)C(=O)O)CCCC(C)CCCC(C)CCCC(C)C (some centres unmarked) [Compound T]
- IC50 (IL-17): 69700 nM
- inhibition at 30 pM (IL1B (IL-1b)): 27%
- IC50 (IL-13): 100 nM
- inhibition at 30 pM (TNF (TNF-α)): 0%
- inhibition at 30 pM (IL17A (IL-17A)): 0%
- IC50 (IL-2): 100 nM
